Key:
Test in all cases: Weeding effect in post-emergence stage (greenhouse pot spray)
Format in all cases: in vivo
Digitaria sanguinalis = test system: Digitaria sanguinalis
In short: (§1)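 Greenhouse pot plants at the 2–3 leaf stage (2 weeks after sowing) were sprayed with compound in acetone with Tween 80 and methyl oleate EC synergist (1.5 L/ha) at 500, 250, 125, 60 or 15 g a.i./ha. Fresh-weight growth control was scored 3 weeks later, averaged over three replicates.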

Abutilon theophrasti = test system: Abutilon theophrasti
In short: as §1

Echinochloa crusgalli = test system: Echinochloa crusgalli
In short: as §1

Stellaria media = test system: Stellaria media
Text: (§2) The activity level criteria for plant damage (i.e., growth control rate) are as follows:
(§3) The above growth control rates are fresh weight control rates.
(§4) Experiment on weeding effect in post-emergence stage: monocotyledonous and dicotyledonous weed seeds (Descurainia sophia, Capsella bursa-pastoris, Abutilon theophrasti, Galium aparine, Stellaria media, Lithospermum arvense, rorippa indica, Alopecurus aequalis, Beckmannia syzigachne, Sclerochloa dura, Phleum paniculatum, Bromus japonicus, Aegilops tauschii, Phalaris arundinacea, Amaranthus retroflexus, Chenopodiaceae, Commelina communis, Sonchus arvensis, convolvulus arvensis, Cirsium setosum, Solanum nigrum, Acalypha australis, Digitaria sanguinalis, Echinochloa crusgalli, Setaria viridis, Setaria glauca, Leptochloa chinensis, Monochoria vaginalis, Sagittaria trifolia, Scirpus juncoides, Cyperus rotundus, Cyperus iria, Cyperus difformis, Fimbristylis, Portulaca oleracea, Xanthium sibiricum, Pharbitis nil) and major crop seeds (wheat, corn, rice, soybean, cotton, oilseed rape, millet, sorghum, potato, sesame, ricinus) were placed in plastic pots filled with soil, then covered with 0.5-2 cm of soil, allowed to grow in a good greenhouse environment. After 2 weeks of sowing, the test plants were treated in the 2 to 3 leaf stage. The tested compounds of the present invention were respectively dissolved in acetone, then added with Tween 80 and 1.5 liter/ha of emulsifiable concentrate of methyl oleate as synergist, diluted with a certain amount of water to obtain a solution with a certain concentration, and sprayed with a spray tower onto the plants. After the application, the plants were cultured for 3 weeks in the greenhouse, and then the experimental results of the weeding were counted. The doses of the used compounds were 500, 250, 125, 60, 15 g a.i./ha, and the averages were obtained by repeating for three times.

Amaranthus retroflexus = test system: Amaranthus retroflexus
Text: as §2, §3, §4

COC[S+]([O-])c1c(C(F)(F)F)ccc(C(=O)Nc2nnc(C)o2)c1F (centres unmarked) [Compound 1-443]
Digitaria sanguinalis (activity level) (Digitaria sanguinalis; Table 2, dose 500 g a.i./ha): 5 (Level 5: growth control rate is above 85%)
Abutilion theophrasti (activity level) (Abutilon theophrasti; Table 2, dose 500 g a.i./ha): 5 (Level 5: growth control rate is above 85%)
Echinochloa crusgah (activity level) (Echinochloa crusgalli; Table 2, dose 500 g a.i./ha): 5 (Level 5: growth control rate is above 85%)
Stellaria media (activity level) (Stellaria media; Table 2, dose 500 g a.i./ha): 5 (Level 5: growth control rate is above 85%)
Amaranthus retroflexus (activity level) (Amaranthus retroflexus; Table 2, dose 500 g a.i./ha): 5 (Level 5: growth control rate is above 85%)

Cc1nnc(NC(=O)c2ccc(C(F)(F)F)c(SCCO)c2F)o1 [Compound 1-59]
Digitaria sanguinalis (activity level) (Digitaria sanguinalis; Table 2, dose 500 g a.i./ha): 5 (Level 5: growth control rate is above 85%)
Abutilion theophrasti (activity level) (Abutilon theophrasti; Table 2, dose 500 g a.i./ha): 5 (Level 5: growth control rate is above 85%)
Echinochloa crusgah (activity level) (Echinochloa crusgalli; Table 2, dose 500 g a.i./ha): 5 (Level 5: growth control rate is above 85%)
Stellaria media (activity level) (Stellaria media; Table 2, dose 500 g a.i./ha): 5 (Level 5: growth control rate is above 85%)
Amaranthus retroflexus (activity level) (Amaranthus retroflexus; Table 2, dose 500 g a.i./ha): 5 (Level 5: growth control rate is above 85%)

CCOCC[S+]([O-])c1c(C(F)(F)F)ccc(C(=O)Nc2nnc(C)o2)c1F (centres unmarked) [Compound 1-446]
Digitaria sanguinalis (activity level) (Digitaria sanguinalis; Table 2, dose 250 g a.i./ha): 5 (Level 5: growth control rate is above 85%)
Abutilion theophrasti (activity level) (Abutilon theophrasti; Table 2, dose 250 g a.i./ha): 5 (Level 5: growth control rate is above 85%)
Echinochloa crusgah (activity level) (Echinochloa crusgalli; Table 2, dose 250 g a.i./ha): 5 (Level 5: growth control rate is above 85%)
Stellaria media (activity level) (Stellaria media; Table 2, dose 250 g a.i./ha): 5 (Level 5: growth control rate is above 85%)
Amaranthus retroflexus (activity level) (Amaranthus retroflexus; Table 2, dose 250 g a.i./ha): 5 (Level 5: growth control rate is above 85%)

CCSc1c(C(F)(F)F)ccc(C(=O)Nc2nnc(CC)o2)c1F [Compound 2-4]
Digitaria sanguinalis (activity level) (Digitaria sanguinalis; Table 2, dose 500 g a.i./ha): 5 (Level 5: growth control rate is above 85%)
Abutilion theophrasti (activity level) (Abutilon theophrasti; Table 2, dose 500 g a.i./ha): 5 (Level 5: growth control rate is above 85%)
Echinochloa crusgah (activity level) (Echinochloa crusgalli; Table 2, dose 500 g a.i./ha): 5 (Level 5: growth control rate is above 85%)
Stellaria media (activity level) (Stellaria media; Table 2, dose 500 g a.i./ha): 5 (Level 5: growth control rate is above 85%)
Amaranthus retroflexus (activity level) (Amaranthus retroflexus; Table 2, dose 500 g a.i./ha): 5 (Level 5: growth control rate is above 85%)

Reference: patent publication US20230041563A1, “N-(1,3,4-OXADIAZOL-2-YL)ARYLCARBOXAMIDES OR SALTS THEREOF, PREPARATION METHODS, HERBICIDAL COMPOSITIONS AND USES THEREOF” (priority 2018, published 2023)
